Measurements from patent publication US11230526B1, “Cylcoalkenyl derivatives useful as agonists of the GPR120 and/or GPR40 receptors” (Janssen Pharmaceutica NV, priority 2018, dated 2022).

Legend:
[1] = target: T1, Human GPR120 short form (Homo sapiens, UniProt Q5NUL3); assay: Human GPR120 calcium flux assay, Procedure Calcium B (4200 cells/well); assay type: cell-based
T1 construct: expressed in transfected cells
T1 sequence (Q5NUL3 1-361): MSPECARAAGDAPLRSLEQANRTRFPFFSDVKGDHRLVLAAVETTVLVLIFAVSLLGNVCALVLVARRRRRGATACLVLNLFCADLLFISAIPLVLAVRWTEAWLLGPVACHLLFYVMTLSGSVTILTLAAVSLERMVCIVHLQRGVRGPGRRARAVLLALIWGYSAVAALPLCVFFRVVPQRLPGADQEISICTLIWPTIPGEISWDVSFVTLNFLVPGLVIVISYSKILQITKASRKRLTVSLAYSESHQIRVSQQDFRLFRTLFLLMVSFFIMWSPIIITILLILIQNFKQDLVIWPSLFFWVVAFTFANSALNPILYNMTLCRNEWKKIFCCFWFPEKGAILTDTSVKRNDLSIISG
Summary of the method: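 Agonist EC50 came from a four-parameter fit of RFU (Fmax−Fmin) read over 300 s on FLIPR. Cells were HEK293 stably transfected with human GPR120 (NM_001195755.1) at 4200 per well, serum-starved 1 h and loaded with Fluo-4 NW dye with probenecid before ligand addition.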

[2] = target: T2, human GPR40 (Homo sapiens, UniProt O14842); assay: GPR40 calcium flux assay, human GPR40; assay type: cell-based; conditions: HEK293 cells stably expressing GPR40; table does not say human or rat
T2 construct: expressed in transfected cells
T2 sequence (O14842 whole entry): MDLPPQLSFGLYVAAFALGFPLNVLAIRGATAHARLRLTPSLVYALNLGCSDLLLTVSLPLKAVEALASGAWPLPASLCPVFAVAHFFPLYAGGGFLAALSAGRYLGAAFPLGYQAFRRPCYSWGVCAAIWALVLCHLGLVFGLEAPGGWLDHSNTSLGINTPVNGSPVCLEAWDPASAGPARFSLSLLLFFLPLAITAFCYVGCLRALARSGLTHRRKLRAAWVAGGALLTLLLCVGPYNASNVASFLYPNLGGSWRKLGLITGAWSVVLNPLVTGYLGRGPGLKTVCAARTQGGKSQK
Summary of the method: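 Cells preincubated 1 h at 37° C. in HBSS, 20 mM HEPES, 0.1% BSA, then Fluo 8 calcium dye 30 min at 37° C. and 15 min at room temperature.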

SMILES: CCCC1=C(COc2ccc(CCC(=O)O)cc2)CCCC1 [Compound 589, 3-[4-[(2-propylcyclohexen-1-yl)methoxy]phenyl]Propanoic Acid]
- EC50 [1]: 3.15 µM
- EC50 [2]: 2.39 µM

SMILES: CCCC1=C(COc2ccc(CCC(=O)O)c(C(F)(F)F)c2)CCCC1 [Compound 590, 3-[4-[(2-propylcyclohexen-1-yl)methoxy]-2-(trifluoromethyl)phenyl]Propanoic Acid]
- EC50 [1]: 1.36 µM
- EC50 [2]: 0.316 µM

SMILES: CCCC1=C(COc2ccc(CCC(=O)O)c(Cl)c2)CCCC1 [Compound 591, 3-[2-chloro-4-[(2-propylcyclohexen-1-yl)methoxy]phenyl]Propanoic Acid]
- EC50 [1]: 2.39 µM
- EC50 [2]: 0.431 µM

SMILES: O=C(O)CCc1ccc(OCC2=C(C3CC4CCC3C4)CCCC2)cc1C(F)(F)F (stereo not shown) [Compound 592, 3-[4-[(2-norbornan-2-ylcyclohexen-1-yl)methoxy]-2-(trifluoromethyl)phenyl]Propanoic Acid]
- EC50 [1]: > 5 µM
- EC50 [2]: 1.55 µM

SMILES: O=C(O)CCc1ccc(OCC2=C(C3CC4CCC3C4)CCCC2)cc1Cl (stereo not shown) [Compound 593, 3-[2-chloro-4-[(2-norbornan-2-ylcyclohexen-1-yl)methoxy]phenyl]Propanoic Acid]
- EC50 [1]: > 5 µM
- EC50 [2]: 1.3 µM

SMILES: O=C(O)CCc1ccc(OCC2=C(C3CCCC3)CCCC2)cc1Cl [Compound 594, 3-[2-chloro-4-[(2-cyclopentylcyclohexen-1-yl)methoxy]phenyl]Propanoic Acid]
- EC50 [1]: 0.362 µM
- EC50 [2]: > 10 µM

SMILES: O=C(O)CCc1ccc(OCC2=C(Cc3cncs3)CCCC2)cc1Cl [Compound 595, 3-[2-chloro-4-[[2-(thiazol-5-ylmethyl)cyclohexen-1-yl]methoxy]phenyl]Propanoic Acid]
- EC50 [1]: 1.11 µM
- EC50 [2]: 0.218 µM

SMILES: O=C(O)CCc1ccc(OCC2=C(Cc3cncs3)CCCC2)cc1C(F)(F)F [Compound 596, 3-[4-[[2-(thiazol-5-ylmethyl)cyclohexen-1-yl]methoxy]-2-(trifluoromethyl)phenyl]Propanoic Acid]
- EC50 [1]: 2.37 µM
- EC50 [2]: 0.324 µM

SMILES: CCCCC1=C(COc2ccc(CCC(=O)O)c(C(F)(F)F)c2)CCCC1 [Compound 598, 3-[4-[(2-butylcyclohexen-1-yl)methoxy]-2-(trifluoromethyl)phenyl]Propanoic Acid]
- EC50 [1]: 0.399 µM
- EC50 [2]: 0.177 µM

SMILES: O=C(O)CCc1ccc(OCC2=C(C3CCC3)CCCC2)cc1C(F)(F)F [Compound 599, 3-[4-[(2-cyclobutylcyclohexen-1-yl)methoxy]-2-(trifluoromethyl)phenyl]Propanoic Acid]
- EC50 [1]: 1.35 µM
- EC50 [2]: 0.098 µM

SMILES: O=C(O)CCc1ccc(OCC2=C(C3CCC3)CCCC2)cc1Cl [Compound 600, 3-[2-chloro-4-[(2-cyclobutylcyclohexen-1-yl)methoxy]phenyl]Propanoic Acid]
- EC50 [1]: 1.2 µM
- EC50 [2]: 0.024 µM

SMILES: O=C(O)CCc1ccc(OCC2=C(C3CCCCC3)CCCC2)cc1Cl [Compound 602, 3-[2-chloro-4-[(2-cyclohexylcyclohexen-1-yl)methoxy]phenyl]Propanoic Acid]
- EC50 [1]: 2.41 µM
- EC50 [2]: 1.06 µM

SMILES: O=C(O)CCc1ccc(OCC2=C(C3CCCC3)CCCC2)cc1C(F)(F)F [Compound 603, 3-[4-[(2-cyclopentylcyclohexen-1-yl)methoxy]-2-(trifluoromethyl)phenyl]Propanoic Acid]
- EC50 [1]: 1.97 µM
- EC50 [2]: 0.185 µM

SMILES: CC1(C)CCC(C2CCCC2)=C(COc2ccc(CCC(=O)O)c(C(F)(F)F)c2)C1 [Compound 604, 3-[4-[(2-cyclopentyl-5,5-dimethyl-cyclohexen-1-yl)methoxy]-2-(trifluoromethyl)phenyl]Propanoic Acid]
- EC50 [1]: 2.01 µM
- EC50 [2]: 1.5 µM

SMILES: CC1(C)CCC(C2CCCC2)=C(COc2ccc(CCC(=O)O)c(Cl)c2)C1 [Compound 605, 3-[2-chloro-4-[(2-cyclopentyl-5,5-dimethyl-cyclohexen-1-yl)methoxy]phenyl]Propanoic Acid]
- EC50 [1]: 1.17 µM
- EC50 [2]: 0.852 µM

SMILES: O=C(O)CCc1ccc(OCC2=C(C3CCCC3)CCC(F)(F)C2)cc1C(F)(F)F [Compound 606, 3-[4-[(2-cyclopentyl-5,5-difluoro-cyclohexen-1-yl)methoxy]-2-(trifluoromethyl)phenyl]Propanoic Acid]
- EC50 [1]: 0.166 µM
- EC50 [2]: 0.247 µM

SMILES: O=C(O)CCc1ccc(OCC2=C(C3CCCC3)CCC(F)(F)C2)cc1Cl [Compound 607, 3-[2-chloro-4-[(2-cyclopentyl-5,5-difluoro-cyclohexen-1-yl)methoxy]phenyl]Propanoic Acid]
- EC50 [1]: 0.148 µM
- EC50 [2]: 0.325 µM

SMILES: O=C(O)CCc1ccc(OCC2=C(C3CCCC3)CCC(F)(F)CC2)cc1F [Compound 610, 3-[4-[(2-cyclopentyl-5,5-difluoro-cyclohepten-1-yl)methoxy]-2-fluoro-phenyl]Propanoic Acid]
- EC50 [1]: 0.302 µM
- EC50 [2]: 0.267 µM

SMILES: O=C(O)CCc1ccc(OCC2=C(C3CCCC3)CCC(F)(F)CC2)cc1 [Compound 611, 3-[4-[(2-cyclopentyl-5,5-difluoro-cyclohepten-1-yl)methoxy]phenyl]Propanoic Acid]
- EC50 [1]: 0.312 µM
- EC50 [2]: 0.733 µM

SMILES: O=C(O)CCc1ccc(OCC2=C(C3CCCC3)CCCCC2)cc1C(F)(F)F [Compound 612, 3-[4-[(2-cyclopentylcyclohepten-1-yl)methoxy]-2-(trifluoromethyl)phenyl]Propanoic Acid]
- EC50 [1]: 0.233 µM
- EC50 [2]: 0.107 µM

SMILES: O=C(O)CCc1ccc(OCC2=C(C3CCCC3)CCCCC2)cc1F [Compound 613, 3-[4-[(2-cyclopentylcyclohepten-1-yl)methoxy]-2-fluoro-phenyl]Propanoic Acid]
- EC50 [1]: 0.436 µM
- EC50 [2]: 0.225 µM

SMILES: O=C(O)CCc1ccc(OCC2=C(C3CCCC3)CCCCC2)cc1 [Compound 614, 3-[4-[(2-cyclopentylcyclohepten-1-yl)methoxy]phenyl]Propanoic Acid]
- EC50 [1]: 0.376 µM
- EC50 [2]: 0.56 µM

SMILES: Cc1c(CCC(=O)O)ccc(OCC2=C(c3ccc(Cl)cc3)CCCCC2)c1C [Compound 615, 3-[4-[[2-(4-chlorophenyl)cyclohepten-1-yl]methoxy]-2,3-dimethyl-phenyl]Propanoic Acid]
- EC50 [1]: 0.172 µM
- EC50 [2]: > 10 µM

SMILES: Cc1c(CCC(=O)O)ccc(OCC2=C(c3ccc(Cl)cc3)CCC(F)(F)CC2)c1C [Compound 616, 3-[4-[[2-(4-chlorophenyl)-5,5-difluoro-cyclohepten-1-yl]methoxy]-2,3-dimethyl-phenyl]Propanoic Acid]
- EC50 [1]: 0.166 µM
- EC50 [2]: 3.55 µM

SMILES: O=C(O)CCc1ccc(OCC2=C(C3CCCC3)CCC(F)(F)CC2)cc1C(F)(F)F [Compound 617, 3-[4-[(2-cyclopentyl-5,5-difluoro-cyclohepten-1-yl)methoxy]-2-(trifluoromethyl)phenyl]Propanoic Acid]
- EC50 [1]: 0.215 µM
- EC50 [2]: 0.103 µM

SMILES: Cc1c(CCC(=O)O)ccc(OCC2=C(C3CCCC3)CCC(F)(F)CC2)c1C [Compound 618, 3-[4-[(2-cyclopentyl-5,5-difluoro-cyclohepten-1-yl)methoxy]-2,3-dimethyl-phenyl]Propanoic Acid]
- EC50 [1]: 0.188 µM
- EC50 [2]: > 10 µM
